US20240308968A1, “FUNGICIDAL SUBSTITUTED HETEROCYCLES” (FMC Corporation, priority 2021, published 2024)

What was measured:
Type in all cases: in vivo
Conditions in all cases: 100 = 100% disease control, 0 = no control
[1] = tested on: Phakopsora pachyrhizi; experiment: Test D: preventive spray on soybean seedlings, Asian soybean rust disease rating
Text: (§1) General protocol for preparing test suspensions for Tests A-F: the test compounds were first dissolved in acetone in an amount equal to 3% of the final volume and then suspended at the desired concentration (in ppm) in acetone and purified water (50/50 mix by volume) containing 50 to 250 ppm of the surfactant PEG400 (polyhydric alcohol esters). The resulting test suspensions were then used in Tests A-F.
The test solution was sprayed to the point of run-off on soybean seedlings. The following day the seedlings were inoculated with a spore suspension of Phakopsora pachyrhizi (the causal agent of Asian soybean rust) and incubated in a saturated atmosphere at 22° C. for 24 h and then moved to a growth chamber at 22° C. for 8 days, after which time visual disease ratings were made.
(§2) The test suspension was sprayed to the point of run-off on tomato seedlings. The following day the seedlings were inoculated with a spore suspension of Alternaria solani (the causal agent of tomato early blight) and incubated in a saturated atmosphere at 27° C. for 48 h, and then moved to a growth chamber at 20° C. for 3 days, after which time visual disease ratings were made. A rating of 100 indicates 100% disease control and a rating of 0 indicates no disease control (relative to the controls). A dash (-) indicates the compound was not tested.

[2] = tested on: Botrytis cinerea; experiment: Test E: preventive spray on tomato seedlings, tomato Botrytis disease rating
Text: as §1
The test suspension was sprayed to the point of run-off on tomato seedlings. The following day the seedlings were inoculated with a spore suspension of Botrytis cinerea (the causal agent of tomato Botrytis) and incubated in a saturated atmosphere at 20° C. for 48 h, and then moved to a growth chamber at 24° C. for 3 days, after which time visual disease ratings were made.
as §2

[3] = tested on: Puccinia recondita f. sp. Tritici; experiment: Test B: preventive spray on wheat seedlings, wheat leaf rust disease rating
Text: as §1
The test solution was sprayed to the point of run-off on wheat seedlings. The following day the seedlings were inoculated with a spore suspension of Puccinia recondita f. sp. Tritici (the causal agent of wheat leaf rust) and incubated in a saturated atmosphere at 20° C. for 24 h, and then moved to a growth chamber at 20° C. for 7 days, after which time disease ratings were made.
as §2

[4] = tested on: Blumeria graminis f. sp. Tritici; experiment: Test C: preventive spray on wheat seedlings, wheat powdery mildew disease rating
Text: as §1
The test suspension was sprayed to the point of run-off on wheat seedlings. The following day the seedlings were inoculated with a spore dust of Blumeria graminis f. sp. Tritici, (also known as Erysiphe graminis f. sp. Tritici, the causal agent of wheat powdery mildew) and incubated in a growth chamber at 20° C. for 8 days, after which time visual disease ratings were made.
as §2

[5] = tested on: Alternaria solani; experiment: Test F: preventive spray on tomato seedlings, tomato early blight disease rating
Text: as §1, §2

[6] = tested on: Zymoseptoria tritici; experiment: Test A: preventive spray on wheat seedlings, wheat leaf blotch disease rating
Text: as §1
The test solution was sprayed to the point of run-off on wheat seedlings. The following day the seedlings were inoculated with a spore suspension of Zymoseptoria tritici (the causal agent of wheat leaf blotch) and incubated in a saturated atmosphere at 24° C. for 48 h, and then moved to a growth chamber at 20° C. for 17 days, after which time disease ratings were made. […]

[7] = Phakopsora pachyrhizi, 216 h, 50 ppm
[8] = Botrytis cinerea, 120 h, 50 ppm
[9] = Puccinia recondita, 192 h, 50 ppm
[10] = Blumeria graminis, 192 h, 50 ppm
[11] = Alternaria solani, 120 h, 50 ppm
[12] = Zymoseptoria tritici, 456 h, 50 ppm

| Structure (SMILES) | Test D disease control rating ([1]; 50 ppm) [%] | Test E disease control rating ([2]; 50 ppm) [%] | Test B disease control rating ([3]; 50 ppm) [%] | Test C disease control rating ([4]; 50 ppm) [%] | Test F disease control rating ([5]; 50 ppm) [%] | Test A disease control rating ([6]; 50 ppm) [%] | other results |
| --- | --- | --- | --- | --- | --- | --- | --- |
| COc1cc(OC)c(Cl)c(-n2nc(C)c(=O)c(C)c2-c2ccc(F)cc2Cl)c1 [Compound 84] | 100 | 94 | 100 | 99 | 100 | 100 |  |
| CCOC(=O)c1c(-c2ccc(F)cc2F)n(-c2cc(OC)cc(OC)c2)nc(C(=O)O)c1=O [Compound 89] |  |  |  |  |  |  | Test D disease control rating ([1]; 250 ppm): 0%; Test E disease control rating ([2]; 250 ppm): 0%; Test B disease control rating ([3]; 250 ppm): 0%; Test C disease control rating ([4]; 250 ppm): 0%; Test F disease control rating ([5]; 250 ppm): 0%; Test A disease control rating ([6]; 250 ppm): 0% |
| COc1cc(OC)c(Cl)c(-c2nc(C)nc(C)c2-c2c(F)cc(F)cc2F)c1 [Compound 54, 4-(2-chloro-3,5-dimethoxyphenyl)-2,6-dimethyl-5-(2,4,6-trifluorophenyl)pyrimidine] |  |  |  |  |  |  | pest or weed control at 50 ppm [1, 7]: 100%; pest or weed control at 50 ppm [2, 8]: 97%; pest or weed control at 50 ppm [3, 9]: 100%; pest or weed control at 50 ppm [4, 10]: 100%; pest or weed control at 50 ppm [5, 11]: 99%; pest or weed control at 50 ppm [6, 12]: 100% |
| COc1cc(OC)cc(-c2c(-c3ccc(F)cc3F)noc(=O)c2C)c1 [Compound 61] | 0 | 83 | 55 | 0 | 0 | 63 |  |
| COc1cc(OC)c(Cl)c(-c2nc(Cl)nc(C)c2-c2c(F)cccc2F)c1 [Compound 48, 2-chloro-4-(2-chloro-3,5-dimethoxyphenyl)-5-(2,6-difluorophenyl)-6-methylpyrimidine] |  |  |  |  |  |  | pest or weed control at 250 ppm ([1]; Phakopsora pachyrhizi, 216 h, 250 ppm): 100%; pest or weed control at 250 ppm ([2]; Botrytis cinerea, 120 h, 250 ppm): 99%; pest or weed control at 250 ppm ([3]; Puccinia recondita, 192 h, 250 ppm): 100%; pest or weed control at 250 ppm ([4]; Blumeria graminis, 192 h, 250 ppm): 100%; pest or weed control at 250 ppm ([5]; Alternaria solani, 120 h, 250 ppm): 100%; pest or weed control at 250 ppm ([6]; Zymoseptoria tritici, 456 h, 250 ppm): 100% |
| COc1ccc(Cl)c(-n2nc(Br)c(=O)c(Br)c2-c2ccc(F)cc2Cl)c1 [Compound 102] | 99 | 99 | 99 | 0 | 88 | 97 |  |
| COc1cc(OC)cc(-n2nc(CO)c(=O)c(C)c2-c2ccc(F)cc2F)c1 [Compound 23, 6-(2,4-difluorophenyl)-1-(3,5-dimethoxyphenyl)-3-(hydroxymethyl)-5-methyl-4(1H)-pyridazinone] |  |  |  |  |  |  | pest or weed control at 50 ppm [1, 7]: 43%; pest or weed control at 50 ppm [2, 8]: 46%; pest or weed control at 50 ppm [3, 9]: 68%; pest or weed control at 50 ppm [4, 10]: 0%; pest or weed control at 50 ppm [5, 11]: 53%; pest or weed control at 50 ppm [6, 12]: 3% |
| CCOC(=O)c1nn(-c2cc(OC)ccc2Cl)c(-c2ccc(F)cc2)c(C(=O)OCC)c1=O [Compound 82] | 0 | 0 | 28 | 0 | 0 | 3 |  |
| COc1cc(OC)c(Cl)c(-n2nc(CO)c(=O)c(C)c2-c2ccc(F)cc2F)c1 [Compound 30, 1-(2-chloro-3,5-dimethoxyphenyl)-6-(2,4-difluorophenyl)-3-(hydroxymethyl)-5-methyl-4(1H)-pyridazinone] |  |  |  |  |  |  | pest or weed control at 50 ppm [1, 7]: 92%; pest or weed control at 50 ppm [2, 8]: 94%; pest or weed control at 50 ppm [3, 9]: 100%; pest or weed control at 50 ppm [4, 10]: 98%; pest or weed control at 50 ppm [5, 11]: 99%; pest or weed control at 50 ppm [6, 12]: 63% |
| COc1cc(OC)cc(-n2nc(CF)c(=O)c(C)c2-c2ccc(F)cc2F)c1 [Compound 26] | 99 | 98 | 100 | 98 | 99 | 100 |  |
| CCn1c(-c2ccc(F)cc2Cl)c(-c2cc(OC)cc(OC)c2)cc(C#N)c1=O [Compound 155] | 0 | 92 | 89 | 0 | 0 | 8 |  |
| Cc1c(-c2ccc(F)cc2Cl)c(-c2cccs2)nn(C)c1=O [Compound 9] | 8 | 98 | 79 | 95 | 16 | 100 |  |
| COc1cc(OC)cc(-c2nc(Cl)nc(C)c2-c2ccc(F)cc2Cl)c1 [Compound 47] |  |  |  |  |  |  | Test D disease control rating ([1]; 250 ppm): 98%; Test E disease control rating ([2]; 250 ppm): 93%; Test B disease control rating ([3]; 250 ppm): 100%; Test C disease control rating ([4]; 250 ppm): 98%; Test F disease control rating ([5]; 250 ppm): 92%; Test A disease control rating ([6]; 250 ppm): 100% |
| COc1cc(OC)c(Cl)c(-n2nc(CO)c(=O)c(Cl)c2-c2ccc(F)cc2Cl)c1 [Compound 99] |  |  |  |  |  |  | Test D disease control rating ([1]; 250 ppm): 99%; Test E disease control rating ([2]; 250 ppm): 93%; Test B disease control rating ([3]; 250 ppm): 100%; Test C disease control rating ([4]; 250 ppm): 95%; Test F disease control rating ([5]; 250 ppm): 96%; Test A disease control rating ([6]; 250 ppm): 100% |
| COc1ccc(Cl)c(-n2nc(OC)c(=O)cc2-c2ccc(F)cc2Cl)c1 [Compound 118] | 0 | 97 | 99 | 56 | 0 | 80 |  |
| COc1cc(OC)c(Cl)c(-c2nc(C)nc(C)c2-c2c(F)cccc2F)c1 [Compound 55] | 100 | 99 | 100 | 100 | 99 | 100 |  |
| Cc1sccc1-c1nn(C)c(=O)c(C)c1-c1ccc(F)cc1Cl [Compound 8] | 96 | 94 | 100 | 99 | 99 | 99 |  |
| COc1cc(OC)cc(-c2nc(C)ncc2-c2c(F)cc(F)cc2F)c1 [Compound 41] |  |  |  |  |  |  | Test D disease control rating ([1]; 250 ppm): 0%; Test E disease control rating ([2]; 250 ppm): 17%; Test B disease control rating ([3]; 250 ppm): 0%; Test C disease control rating ([4]; 250 ppm): 91%; Test F disease control rating ([5]; 250 ppm): 0%; Test A disease control rating ([6]; 250 ppm): 84% |
| COc1cc(OC)c(Cl)c(-n2nc(I)c(=O)c(C)c2-c2ccc(F)cc2Cl)c1 [Compound 96] | 100 | 98 | 100 | 99 | 100 | 100 |  |
| Cc1c(-c2ccc(F)cc2Cl)c(-c2ccn(C)n2)nn(C)c1=O [Compound 20] | 0 | 33 | 19 | 72 | 0 | 0 |  |
| CCOC(=O)c1nn(-c2cc(OC)cc(OC)c2)c(-c2ccc(F)cc2)c(C(=O)OCC)c1=O [Compound 125] | 0 | 0 | 28 | 0 | 0 | 3 |  |
